{"source": "patent US20120040941A1", "about": "“5-(2--1-HYDROXYETHYL)-8-HYDROXYQUINOLIN-2(1H)-ONE AND ITS USE IN THE TREATMENT OF PULMONARY DISEASES” (priority 2009, published 2012)", "assay_type_in_all_cases": "in vivo, human", "key": {"[1]": {"assay": "Clinical Phase II study: pharmacokinetics, plasma level after inhalation", "settings": "subjects receiving the dose of 5 micrograms by inhalation", "excerpt": "(§1) Clinical Phase II study: A randomised double-blind, double-dummy, placebo and active comparator-controlled, cross-over trial assesses the activity, safety, tolerability and pharmacokinetics of single doses of 5-(2-{[6-(2,2-difluoro-2-phenylethoxy)hexyl]amino}-1-(R)-hydroxyethyl)-8-hydroxyquinolin-2(1H)-one heminapadisylate by inhalation in asthma patients.\n(§2) Methods: Men with a diagnosis of mild to moderate persistent asthma, as defined by the 2006 GINA guideline, for at least 6 months prior to screening and with a FEV 1 61-85% of the predicted normal values (according to Quanjer et al. 1993) were randomised to treatment sequences comprising a single-dose administration of 5-(2-{[6-(2,2-difluoro-2-phenylethoxy)hexyl]amino}-1-(R)-hydroxyethyl)-8-hydroxyquinolin-2(1H)-one heminapadisylate (at metered nominal doses of 5, 10 and 25 micrograms in the Cyclohaler® device), two administrations (at time points 0 and 12 hours) of Salmeterol (at a metered nominal dose of 50 micrograms in the Cyclohaler® device) and placebo administered all of them by means of a dry powder inhaler. Lung function measurements included (by spirometry) FEV1, PEF, FVC, FEF25-75, and (by body plethysmography) sGaw and Raw."}, "asthma patients [2]": {"test_system": "asthma patients", "assay": "Clinical Phase II study: lung function (spirometry, body plethysmography) after single inhaled doses", "excerpt": "as §1, §2"}, "asthma patients [3]": {"test_system": "asthma patients", "assay": "Clinical Phase II study: safety and tolerability, adrenergic adverse events", "excerpt": "as §1, §2"}, "[4]": {"settings": "single dose 5 micrograms, patients with asthma"}}}
{"smiles": "O=c1ccc2c([C@@H](O)CNCCCCCCOCC(F)(F)c3ccccc3)ccc(O)c2[nH]1", "note": "[5-(2-{[6-(2,2-difluoro-2-phenylethoxy)hexyl]amino}-1-(R)-hydroxyethyl)-8-hydroxyquinolin-2(1H)-one]", "values": [{"measurement": "plasma level", "setting": "[1]", "result": "< 2.5", "unit": "pg/mL"}, {"measurement": "differences in dose effect between the different doses", "setting": "asthma patients [2]; 5, 10 and 25 micrograms", "result": "no evidence of differences in dose effect"}, {"measurement": "bronchodilatory action, time after dosing", "setting": "asthma patients [2]; all doses (5, 10 and 25 micrograms), single inhalation", "result": "up to 36 hours"}, {"measurement": "bronchodilation", "setting": "asthma patients [2]; [4]", "result": "supramaximal long-lasting bronchodilation"}, {"measurement": "increase in average trough FEV1 compared to salmeterol", "setting": "asthma patients [2]; single dose vs salmeterol 50 micrograms at 0 and 12 hours", "result": "statistically significant"}, {"measurement": "average peak and trough FEV1 compared with placebo and with salmeterol", "setting": "asthma patients [2]; single inhaled doses 5, 10 and 25 micrograms (all doses tested), salmeterol 2 x 50 micrograms, mild to moderate persistent asthma", "result": "clearly increased"}, {"measurement": "adverse events commonly seen after adrenergic stimulation (tremor, tachycardia, restlessness)", "setting": "asthma patients [3]; doses 5, 10 and 25 micrograms, single inhalation", "result": "occurred only with the two higher (10 and 25 micrograms) doses"}, {"measurement": "systemic adrenergic effects", "setting": "asthma patients [3]; [4]", "result": "without producing systemic adrenergic effects"}]}
